Assay results reported in patent US20220289685A1, “ANTIMALARIAL HEXAHYDROPYRIMIDINE ANALOGUES” (UCB BIOPHARMA SRL, priority 2019, published 2022).
Where a name gives a salt, the structure may show the parent alone.

The molecules below were run on Plasmodium falciparum 3D7 strain (assay: P. falciparum 3D7 asexual blood stage assay (SYBR green readout)). Conditions: Plasmodium falciparum, 3D7, Erythrocyte, 72 h.
Format: cell-based
Description: Asexual Blood Stage Assay
The assay used to measure the effect of test compounds on a bloodstream stage of Plasmodium falciparum: 3D7 strain employs SYBR green as the readout. This is a dye that binds to double stranded deoxyribonucleic acid (DNA) with a resulting increase in fluorescence, allowing detection of P. falciparum DNA in infected erythrocytes, and thereby providing a measure of parasite growth and propagation.
P. falciparum Culture Maintenance
Erythrocytes (A+ blood) were prepared for both parasite culture and assay by washing 4 times with incomplete media (15.9 g RPMI 1640 (25 mM HEPES, L-glutamine), 1 g NaHCO3, 2 g glucose, 400 μL gentacin (500 mg/mL), 2 mL hypoxanthine solution (13.6 g/L in 0.1M NaOH pH 7.3) in 1 litre of media). The cells were centrifuged at 1800 g for 5 minutes, before decanting the supernatant and re-suspending in fresh incomplete media. On the final wash, the cells were re-suspended in complete media (incomplete media with 5 g/L AlbumaxII), and centrifuged at 1800 g for 3 minutes. This cell sediment was treated as 100% haematocrit.
P. falciparum 3D7 was cultured in erythrocytes at 5% haematocrit in complete media at 37° C. (1% O2, 3% CO2, balance N2). Cultures were split on a weekly basis to achieve a 1% parasitaemia in erythrocites at 5% haematocrit in fresh media. Culture media is replaced by fresh media every other day (2 times during the week).
On day 1, test compounds were added to assay plates using Echo dispensing technology ([…] and 20 points titration). 50 nL of each compound dilution was added to 50 μL of culture (5% haematocrit, 0.5% parasitaemia) and incubated for 72 h at 37° C. (1% O2, 3% CO2, balance N2). Final concentrations of test compounds ranged from 50,000 nM to 15 nM, in […].
On day 4, 10 μL SYBR green (Invitrogen S7563 supplied as 10,000× concentrate in DMSO) pre-diluted to 3× concentrate with Lysis buffer (20 mM Tris pH 7.9, 5% EDTA, 0.16% w/v, 1.6% TX100 v/v) was added to the cultures and incubated in the dark, overnight, at room temperature.
On day 5, fluorescent signal was measured using a BioTek plate reader (excitation 485 nm, emission 528 nm). All data were processed using IDBS ActivityBase. Raw data were converted into percent inhibition through linear regression by setting the high inhibition control (mefloquine) as 100% and the no inhibition control (DMSO) as 0%. Quality control criteria for passing plates were as follows: Z′>0.5, S:B>3, 30% CV(no inhibition control)<15. The formula used to calculate Z′ is: […]
All EC50 curve fitting was undertaken using the following bi-phasic two site dose response using XLfit model 300 (IDBS):
where A=100 minus the top of the upper curve 1 and the bottom of lower curve; B=Hill slope; log(C)=IC50 concentration at lower site; log(D)=IC50 concentration at upper site; x=inhibitor concentration; and y=% inhibition.
With `C[C@@H]1C[C@H](N2C(=N)N[C@](C)(c3cccc(NC(=O)c4cncc(C5CC5)c4)c3Cl)CC2=O)CCO1` (relative stereo) [Example 104, N-(2-Chloro-3-{(4S)-2-imino-4-methyl-1-[(2R*,4R*)-2-methyl-tetrahydropyran-4-yl]-6-oxo-hexahydropyrimidin-4-yl}phenyl)-5-cyclopropylpyridine-3-carboxamide hydrochloride] the IC50 was 19 nM.
For `C[C@@H]1C[C@H](N2C(=N)N[C@](C)(c3cccc(NC(=O)c4cccc(-n5cccn5)c4)c3Cl)CC2=O)CCO1` (relative stereo) [Example 90, N-(2-Chloro-3-{(4S)-2-imino-4-methyl-1-[(2R*,4R*)-2-methyl-tetrahydropyran-4-yl]-6-oxo-hexahydropyrimidin-4-yl}phenyl)-3-(pyrazol-1-yl)benzamide trifluoroacetic acid salt], the IC50 was 23 nM.
In the case of `C[C@@H]1C[C@H](N2C(=N)N[C@](C)(c3cccc(NC(=O)c4ccc(Cl)cn4)c3Cl)CC2=O)CCO1` (relative stereo) [Example 63, 5-Chloro-N-(2-chloro-3-{(4S)-2-imino-4-methyl-1-[(2R*,4R*)-2-methyltetrahydropyran-4-yl]-6-oxo-hexahydropyrimidin-4-yl]phenyl)-pyridine-2-carboxamide hydrochloride], the IC50 is reported as 41 nM.
With `C[C@@H]1C[C@H](N2C(=N)N[C@](C)(c3cccc(NC(=O)c4cccnc4)c3Cl)CC2=O)CCO1` (relative stereo) [Example 7, N-(2-Chloro-3-{(4S)-2-imino-4-methyl-1-[(2R*,4R*)-2-methyl-tetrahydropyran-4-yl]-6-oxo-hexahydropyrimidin-4-yl}phenyl)-pyridine-3-carboxamide hydrochloride] the IC50 was 29 nM.
`Cc1cnc(C(=O)Nc2cccc([C@]3(C)CC(=O)N([C@@H]4CCO[C@H](C)C4)C(=N)N3)c2Cl)cn1` (relative stereo) [Example 34, N-(2-Chloro-3-{(4S)-2-imino-4-methyl-1-[(2R*,4R*)-2-methyl-tetrahydropyran-4-yl]-6-oxo-hexahydropyrimidin-4-yl]phenyl)-5-methylpyrazine-2-carboxamide trifluoroacetic acid salt] was tested, and the IC50 was 60 nM.
`C[C@@H]1C[C@H](N2C(=N)N[C@](C)(c3cccc(NC(=O)c4cc(F)cc(C#N)c4)c3Cl)CC2=O)CCO1` (relative stereo) [Example 99, N-(2-Chloro-3-{(4S)-2-imino-4-methyl-1-[(2R*,4R*)-2-methyl-tetrahydropyran-4-yl]-6-oxo-hexahydropyrimidin-4-yl}phenyl)-3-cyano-5-fluorobenzamide hydrochloride] gave an IC50 of 18 nM.
`Cc1cc(C(=O)Nc2cccc([C@]3(C)CC(=O)N([C@@H]4CCO[C@H](C)C4)C(=N)N3)c2Cl)c2nccn2c1` (relative stereo) [Example 28, N-(2-Chloro-3-{(4S)-2-imino-4-methyl-1-[(2R*,4R*)-2-methyl-tetrahydropyran-4-yl]-6-oxo-hexahydropyrimidin-4-yl}phenyl)-6-methylimidazo[1,2-a]pyridine-8-carboxamide trifluoroacetic acid salt] showed an IC50 of 24 nM.
In the case of `C[C@@]1(c2cccc(NC(=O)c3ccccc3)c2Cl)CC(=O)N(C2CCOCC2)C(=N)N1` [Example 1, N-{2-Chloro-3-[(4S)-2-imino-4-methyl-6-oxo-1-(tetrahydropyran-4-yl)hexahydropyrimidin-4-yl]-phenyl]benzamide trifluoroacetic acid salt], the IC50 is reported as 227 nM.
With `C[C@@H]1C[C@H](N2C(=N)N[C@](C)(c3cccc(NC(=O)c4nnc5ccccn45)c3Cl)CC2=O)CCO1` (relative stereo) [Example 62, N-(2-Chloro-3-{(4S)-2-imino-4-methyl-1-[(2R*,4R*)-2-methyl-tetrahydropyran-4-yl]-6-oxo-hexahydropyrimidin-4-yl]phenyl)-[1,2,4]triazolo[4,3-a]pyridine-3-carboxamide hydrochloride] the IC50 was 23 nM.
`C[C@@H]1C[C@H](N2C(=N)NC(C)(c3cccc(NC(=O)c4ccc(Cl)cc4F)c3Cl)CC2=O)CCO1` (relative stereo) [Example 67, 4-Chloro-N-(2-chloro-3-{(4S)-2-imino-4-methyl-1-[(2R*,4R*)-2-methyltetrahydropyran-4-yl]-6-oxo-hexahydropyrimidin-4-yl}phenyl)-2-fluorobenzamide hydrochloride] gave an IC50 of 26 nM.
In the case of `C[C@@H]1C[C@H](N2C(=N)N[C@](C)(c3cccc(NC(=O)c4ccc(OC(F)(F)F)cn4)c3Cl)CC2=O)CCO1` (relative stereo) [Example 47, N-(2-Chloro-3-{(4S)-2-imino-4-methyl-1-[(2R*,4R*)-2-methyl-tetrahydropyran-4-yl]-6-oxo-hexahydropyrimidin-4-yl]phenyl)-5-(trifluoromethoxy)pyridine-2-carboxamide trifluoroacetic acid salt], the IC50 is reported as 242 nM.
For `C[C@@H]1C[C@H](N2C(=N)N[C@](C)(c3cccc(NC(=O)c4ncccn4)c3Cl)CC2=O)CCO1` (relative stereo) [Example 15, N-(2-Chloro-3-{(4S)-2-imino-4-methyl-1-[(2R*,4R*)-2-methyl-tetrahydropyran-4-yl]-6-oxo-hexahydropyrimidin-4-yl}phenyl)-pyrimidine-2-carboxamide hydrochloride], the IC50 was 37 nM.
Work on `COc1ccc(C#N)cc1C(=O)Nc1cccc([C@]2(C)CC(=O)N([C@@H]3CCO[C@H](C)C3)C(=N)N2)c1Cl` (relative stereo) [Example 106, N-(2-Chloro-3-{(4S)-2-imino-4-methyl-1-[(2R*,4R*)-2-methyl-tetrahydropyran-4-yl]-6-oxo-hexahydropyrimidin-4-yl}phenyl)-5-cyano-2-methoxybenzamide hydrochloride] yielded an IC50 of 38 nM.
`CC#Cc1cncc(C(=O)Nc2cccc([C@]3(C)CC(=O)N([C@@H]4CCO[C@H](C)C4)C(=N)N3)c2Cl)c1` (relative stereo) [Example 108, N-(2-Chloro-3-{(4S)-2-imino-4-methyl-1-[(2R*,4R*)-2-methyl-tetrahydropyran-4-yl]-6-oxo-hexahydropyrimidin-4-yl}phenyl)-5-(prop-1-ynyl)pyridine-3-carboxamide hydrochloride] gave an IC50 of 40 nM.
`C[C@@H]1C[C@H](N2C(=N)N[C@](C)(c3cccc(NC(=O)c4cncc(C#N)c4)c3Cl)CC2=O)CCO1` (relative stereo) [Example 74, N-(2-Chloro-3-{(4S)-2-imino-4-methyl-1-[(2R*,4R*)-2-methyl-tetrahydropyran-4-yl]-6-oxo-hexahydropyrimidin-4-yl}phenyl)-5-cyanopyridine-3-carboxamide hydrochloride] gave an IC50 of 109 nM.
Molecule `C[C@@H]1C[C@H](N2C(=N)N[C@](C)(c3cccc(NC(=O)c4cnc5ccccc5n4)c3Cl)CC2=O)CCO1` (relative stereo) [Example 31, N-(2-Chloro-3-{(4S)-2-imino-4-methyl-1-[(2R*,4R*)-2-methyl-tetrahydropyran-4-yl]-6-oxo-hexahydropyrimidin-4-yl}phenyl)-quinoxaline-2-carboxamide trifluoroacetic acid salt] has an IC50 of 13 nM.
In the case of `C[C@@H]1C[C@H](N2C(=N)N[C@](C)(c3cccc(NC(=O)c4cccc(C(F)(F)F)c4)c3Cl)CC2=O)CCO1` (relative stereo) [Example 41, N-(2-Chloro-3-{(4S)-2-imino-4-methyl-1-[(2R*,4R*)-2-methyl-tetrahydropyran-4-yl]-6-oxo-hexahydropyrimidin-4-yl}phenyl)-3-(trifluoromethyl)benzamide trifluoroacetic acid salt], the IC50 is reported as 15 nM.
Work on `C[C@@]1(c2cccc(NC(=O)c3cccc(C#N)c3)c2Cl)CC(=O)N(C2CCC(F)(F)CC2)C(=N)N1` [Example 23, N-{2-Chloro-3-[(4S)-1-(4,4-difluorocyclohexyl)-2-imino-4-methyl-6-oxohexahydropyrimidin-4-yl]phenyl}-3-cyanobenzamide hydrochloride] yielded an IC50 of 68 nM.
For `C[C@@H]1C[C@H](N2C(=N)N[C@](C)(c3cccc(NC(=O)c4ccn(C)n4)c3Cl)CC2=O)CCO1` (relative stereo) [Example 8, N-(2-Chloro-3-{(4S)-2-imino-4-methyl-1-[(2R*,4R*)-2-methyl-tetrahydropyran-4-yl]-6-oxo-hexahydropyrimidin-4-yl}phenyl)-1-methylpyrazole-3-carboxamide hydrochloride], the IC50 was 260 nM.
